{
  "source": "ChEMBL document CHEMBL3870324",
  "about": "“Asnovolins A-G, Spiromeroterpenoids Isolated from the Fungus Aspergillus novofumigatus, and Suppression of Fibronectin Expression by Asnovolin E” (J Nat Prod, 2016)",
  "key": {"Homo sapiens [1]": {"organism": "Homo sapiens", "assay": "Inhibition of fibronectin expression in HNDF after 24 hrs by Western blot analysis", "assay_type": "functional"}, "Homo sapiens [2]": {"organism": "Homo sapiens", "assay": "Inhibition of fibronectin expression in HNDF at 25 uM after 24 hrs by Western blot analysis relative to control", "assay_type": "functional"}},
  "data": [
    {"smiles": "C=C(C)[C@@H]1CC[C@H](C)[C@@]2(C[C@@]3(C)C(=C(C)C(=O)[C@@H](C(=O)OC)[C@@H]3C)O2)[C@@]1(C)CCC(=O)OC", "values": [
      {"measurement": "inhibition", "setting": "Homo sapiens [1]", "result": "Dose-dependent effect"},
      {"measurement": "inhibition", "setting": "Homo sapiens [2]", "result": 87, "unit": "%"}
    ]}
  ]
}
